Source: patent US11884710B2, “Peptide compounds and methods of use in wound healing” (priority 2013, dated 2024)
Read-outs that look alike come from different tables or passages of the source. Square brackets hold non-standard residues; d marks the D form. Ends that are not written are not given here. PEG2 = NCCOCCOCCC(=O)O

Legend:
[1] = system: Pseudomonas clinical isolate B64; experiment: BIOSCREEN C growth assay, peptide plus antibiotic combinations; assay type: cell-based, Pseudomonas aeruginosa; settings: for MIC: Pseudomonas
Experimental: FIGS. 28A and 28B show the effect of BCC002-5R-MP (SEQ ID NO:21) in combination with Cefotaxime on MIC using Pseudomonas clinical isolate B64. Cefotaxime (Cefo) and peptide combinations included a constant amount of Cefotaxime (2.81 μg/ml) with suboptimal amounts of peptide (0, 0.34, 1.01, and 3.04 μg/ml). […] FIG. 28B is a histogram showing Fractional area (FA), which is an indication of the MIC.
FIG. 29B is a histogram showing Fractional area (FA), which is an indication of the MIC.
FIGS. 30A and 30B show the effect of BCC02-5R-MP (SEQ ID NO:21) in combination with Levofloxacin (Levo) and peptide combinations included a constant amount of Levofloxacin (3.6 μg/ml) with suboptimal amounts of peptide (0, 0.34, 1.01, 3.04 μg/ml). […] FIG. 30B is a histogram showing Fractional area (FA), which is an indication of the MIC.
The peptide and antibiotics were set up in the wells of the microtiter plate at starting ratios of MIC equivalents of antibiotic:peptide at 3:1, 1:1, and 1:3. They were serially diluted to concentrations well below suboptimal/sublethal levels of the antibiotic and peptide. The organism was added (1×10^5 CFU/well), the BIOSCREEN C™ assay (Growth Systems USA, Piscataway, N.J.) was performed, and data was collected over 24 hours.

[2] = system: Pseudomonas aeruginosa ATCC 27853; experiment: In vitro bactericidal assay, P. aeruginosa ATCC 27853 (FIGS. 12-14); assay type: cell-based; settings: for bactericidal effectiveness concluded by extrapolation: even at substantially lower concentrations of the peptide
Experimental: (§1) Each of the test peptides was used at 25, 12.5 6.25, and 3.12 μM. The gentamicin was used at 4 μg/ml. 1×10^6/ml Pseudomonas aeruginosa ATCC® 27853™ (American Type Culture Collection, Manassas, Va.) were incubated with the peptides, negative buffer control (tryptone saline), and positive control gentamicin for 180 minutes at pH 7.2. 50 μl aliquots were plated out on agar plates and incubated overnight. Colony forming units were counted after overnight incubation and CFU/ml calculated.
as §1, with “12.5,” for “12.5”, “5.5.” for “7.2.”
FIG. 14 is a comparison of bactericidal activity of CAP37 peptides 120-146WR (SEQ ID NO:30), 120-146WH (SEQ ID NO:31), 120-146QR (SEQ ID NO:28), 120-146QH (SEQ ID NO:29), 120-146QR-5RMP (SEQ ID NO:32), and 120-146QH-5RMP (SEQ ID NO:33) for Pseudomonas aeruginosa ATCC® 27853™ (American Type Culture Collection, Manassas, Va.). 1×10^6/ml Pseudomonas aeruginosa ATCC® 27853™ were incubated with the peptides at 150, 75, and 37.5 μg/ml and negative buffer control (tryptone saline) for 180 minutes at pH 5.5. 50 μl aliquots were plated out on agar plates and incubated overnight. Colony forming units were counted after overnight incubation and CFU/ml calculated.
(§2) For FIGS. 10-13, in vitro bactericidal assays were performed using a starting inoculum of 1×10^6 CFU/ml of the bacterial suspension. The CFU remaining at the end of the 60-180 minute incubation was determined, and the data was plotted as log reduction in CFU/ml.
(§3) In particular, each of the test peptides (CAP37 peptides 120-146WR, 120-146WH, and 95-122 (SEQ ID NOS:30, 31, and 26, respectively)) was used at 25, 12.5, 6.25, and 3.12 μM. Gentamicin was used at 4 μg/ml. 1×10^6/ml Acinetobacter baumannii ATCC® BAA-747™ or Pseudomonas aeruginosa ATCC® 27853™ (American Type Culture Collection, Manassas, Va.) were incubated with the peptides, negative buffer control (tryptone saline), and positive control gentamicin at pH 5.5 or 7.2. A 60 minute incubation was used for Acinetobacter baumannii ATCC® BAA-747™, while a 180 minute incubation was used for Pseudomonas aeruginosa ATCC® 27853™. 50 μl aliquots were plated out on agar plates and incubated overnight. Colony forming units were counted after overnight incubation and CFU/ml calculated.
For FIG. 14, 1×10^6/ml Pseudomonas aeruginosa ATCC® 27853™ were incubated with each of the test peptides (CAP37 peptides 120-146WR, 120-146WH, 120-146QR, 120-146QH, 120-146QR-5RMP, and 120-146QH-5RMP (SEQ ID NOS:30, 31, 28, 29, 32, and 33, respectively)) at 150, 75, and 37.5 μg/ml, or negative buffer control (tryptone saline), for 180 minutes at pH 5.5. 50 μl aliquots were plated out on agar plates and incubated overnight. Colony forming units were counted after overnight incubation and CFU/ml calculated.

[3] = system: full thickness excisional wounds; experiment: Swine full thickness excisional dermal wound model; assay type: in vivo; settings: for Mean Wound Healing (%): topical 3 mg/ml, 0.20 ml daily
Experimental: In this Example, peptide compounds of the presently disclosed inventive concepts were evaluated as to their activity on the dermal wound healing process in a clinically relevant swine full thickness excisional wound model. Three different peptide formulations (Group B, Peptide 95-122 (SEQ ID NO:26); Group C, Peptide 120-146WH (SEQ ID NO:31); and Group D, Peptide 120-146QH-5RMP (SEQ ID NO:33)) were each evaluated at the same concentration (3 mg/ml). Sterile saline served as the control (Group A).
(§4) Full thickness excisional wounds were induced on the dorsum of swine (N=3) using a 1.0 cm biopsy punch. Treatments were administered (0.20 ml) to each wound (N=6 wounds per group), and the wounds were dressed with standard occlusive dressing ([…]™, 3M Corporation, St. Paul, Minn.). Treatments were reapplied daily and dressings changed. Clinical wound healing observations and wound area (2 mm) measurements were performed on days 0, 3, 5, 7, 10, and 14 post-wounding. Wound area (2 mm) data were expressed as percentage (%) of wound healing. Animals were terminated on day 14 with wounds harvested and processed for histological evaluation. […] All peptide formulation treatment groups healed faster with greater rate of closure and re-epithelialization over time, as compared to the saline control (Group A).

[4] = system: full thickness excisional wounds; experiment: Histopathology of swine dermal wounds; assay type: in vivo; set-up: Inflammation, mean histopathology score / Angiogenesis, mean histopathology score / Granulation, mean histopathology score / Epithelization, mean histopathology score: scale not given here
Experimental: The characteristics that were measured are required to indicate features of a well-healed wound. Inflammation should be low and re-epithelialization high.
as §4
The histology correlated with the clinical observations. […] There were minimal differences in the amount or character of granulation tissue, inflammation, and angiogenesis. All the wounds were well filled and vascularized.

[5] = system: human corneal epithelial cell (HCEC); experiment: HCEC chemotaxis, modified Boyden chemotaxis chamber; assay type: cell-based; settings: for HCEC migration compared with the whole CAP37 protein, in words: 120-146QH at 10^−6 M and 10^−8 M, 120-146QR concentration not stated; for migration of HCECs vs buffer control, in words: 3 hours at 37° C.
Experimental: The effect of buffer control (0.1% BSA in Gey's buffer), heparin binding-epidermal growth factor (HB-EGF, 50 ng/ml), recombinant CAP37 (rCAP37, 250 ng/ml), 120-146QH (10^−12M, 10^−10 M, 10^−8 M, 10^−6M, and 10^−4M,) and 120-146QR (10^−10M, 10^−8M, 10^−6M, and 10^−4M) on HCEC chemotaxis was determined by the modified Boyden chemotaxis chamber method. HCEC chemotaxis was measured in response to HB-EGF, rCAP37, and peptides 120-146QH (SEQ ID NO:29) and 120-146QR (SEQ ID NO:28) after incubation for 3 hours at 37° C. Chemotaxis is expressed as a percent migration. The buffer control (no chemoattractant) is arbitrarily assigned the value of 100% migration. Data are expressed as means±SEM and are calculated from 6 observations for each test point. **P<0.01 by Wilcoxon signed-rank test as compared to controls.
Chemotaxis: Chemotaxis assays were performed using the modified Boyden chemotaxis chamber assay. Peptide 120-146QH was used at 10^−4 M, 10^−6 M, 10^−8 M, 10^−10 M, and 10^−12 M, and peptide 120-146QR was used at 10^−4 M, 10^−6 M, 10^−8M, and 10^−10M.

[6] = system: Acinetobacter baumannii ATCC BAA-747; experiment: In vitro bactericidal assay, A. baumannii ATCC BAA-747 (FIGS. 10-11); assay type: cell-based; settings: 60 minutes, peptides 3.12-25 μM, gentamicin 4 μg/ml
Experimental: as §1, with “6.25” for “6.25,”, “Acinetobacter baumannii” for “Pseudomonas aeruginosa”, “BAA-747™” for “27853™”, “60” for “180”, “5.5.” for “7.2.”
as §1, with “6.25” for “6.25,”, “Acinetobacter baumannii” for “Pseudomonas aeruginosa”, “BAA-747™” for “27853™”, “60” for “180”
as §2, §3

[7] = antibiotic alone, 1×10^5 CFU/well, 24 hours, read-out: MIC
[8] = wounds harvested on day 14, 3 mg/ml

Q: What does the source list for `CO/N=C(\C(=O)N[C@@H]1C(=O)N2C(C(=O)O)=C(COC(C)=O)CS[C@H]12)c1csc(N)n1` [Cefotaxime]?
A: bactericidal impact on growth curve, in words ([1]; Cefotaxime alone at 2.8 μg/ml): very little bactericidal impact; MIC [1, 7]: 15 µg/mL

Q: What does the source list for `C[C@H]1COc2c(N3CCN(C)CC3)c(F)cc3c(=O)c(C(=O)O)cn1c23` [Levofloxacin]?
A: MIC [1, 7]: 15 µg/mL; MIC ([1]; in the presence of 3.04 μg/ml of peptide BCC02-5RMP, read-out: MIC of Levofloxacin with peptide): 3.5 µg/mL

Q: For “(AEEP)-(AEEP)-RRRRGTRCQVAGWGSQHSGGRLSRFPRFVNVR ([PEG2][PEG2]RRRRGTRCQVAGWGSQHSGGRLSRFPRFVNVR) [120-146QH-5RMP]”, which “reduction in CFU” value ([2]; FIG. 14, pH 5.5, 180 minutes, even at the lower concentration (75 μg/ml)) is on record?
A: ~6 log

Q: And the “Mean Wound Healing (%)” value ([3]; Day 0)?
A: 0.0%

Q: And the “Mean Wound Healing (%)” value ([3]; Day 3)?
A: 22.5%

Q: And the “Mean Wound Healing (%)” value ([3]; Day 5)?
A: 34.1%

Q: What about the “Mean Wound Healing (%)” value ([3]; Day 7) of the same compound?
A: 64.1%

Q: What about the “Mean Wound Healing (%)” value ([3]; Day 10) of the same compound?
A: 93.7%

Q: And the “Mean Wound Healing (%)” value ([3]; Day 14)?
A: 98.0%

Q: And the “percentage of wound healing vs saline control, in words” value ([3]; days 10 and 14 post-wounding, 3 mg/ml)?
A: significant (p<0.05) increase in the percentage of wound healing

Q: What about the “epidermal resurfacing and maturation vs saline control, in words” value ([4]; day 14 post-wounding) of the same compound?
A: greater extent of epidermal resurfacing and maturation of the epidermis

Q: And the “Angiogenesis, mean histopathology score” value [4, 8]?
A: 1.3

Q: What about the “Epithelization, mean histopathology score” value [4, 8] of the same compound?
A: 4.0

Q: And the “Granulation, mean histopathology score” value [4, 8]?
A: 4.0

Q: What about the “Inflammation, mean histopathology score” value [4, 8] of the same compound?
A: 0.5

Q: “(AEEP)-(AEEP)-RRRRGTRCQVAGWGSWHSGGRLSRFPRFVNVR ([PEG2][PEG2]RRRRGTRCQVAGWGSWHSGGRLSRFPRFVNVR) [120-146WH-5RMP]” was tested. Which predicted killing capabilities [2] did it give?
A: superior killing capabilities

Q: And the “bactericidal effectiveness concluded by extrapolation” value [2]?
A: highly effective

Q: Which predicted killing capabilities [2] does the source give for “(AEEP)-(AEEP)-RRRRGTRCQVAGWGSWRSGGRLSRFPRFVNVR ([PEG2][PEG2]RRRRGTRCQVAGWGSWRSGGRLSRFPRFVNVR) [120-146WR-5RMP]” here?
A: superior killing capabilities

Q: What about the “bactericidal effectiveness concluded by extrapolation” value [2] of the same compound?
A: highly effective

Q: Which “activity in in vitro killing assays, in words” value ([2]; FIG. 14, pH 5.5, 180 minutes) does the source give for “GTRCQVAGWGSQHSGGRLSRFPRFVNV (derivative of peptide of Homo sapiens CAP37 protein) [Peptide 120-146QH]” here?
A: relatively inactive

Q: And the “HCEC migration compared with the whole CAP37 protein, in words” value [5]?
A: comparable to the migration obtained with the whole CAP37 protein

Q: What about the “migration of HCECs vs buffer control, in words” value ([5]; peptide at 10^−4 M, 10^−6 M, 10^−8 M, and 10^−10 M) of the same compound?
A: significantly increase migration of HCECs

Q: For “GTRCQVAGWGSQRSGGRLSRFPRFVNV (listed as Homo sapiens) [Peptide 120-146QR]”, which “activity in in vitro killing assays, in words” value ([2]; FIG. 14, pH 5.5, 180 minutes) is on record?
A: relatively inactive

Q: What about the “HCEC migration compared with the whole CAP37 protein, in words” value [5] of the same compound?
A: less than the migration obtained with the whole protein

Q: What about the “migration of HCECs vs buffer control, in words” value ([5]; peptide at 10^−6 M and 10^−8 M) of the same compound?
A: significantly increase migration of HCECs

Q: Which results are given for gentamicin [reference compound]?
A: bactericidal activity, in words ([2]; 120-146WR at 25 μM, gentamicin 4 μg/ml): highly active; reduction of CFU/ml ([2]; pH 5.5, 180 minutes, gentamicin 4 μg/ml): 2 log; bactericidal activity, in words ([2]; pH 5.5, 180 minutes, peptides 3.12-25 μM, gentamicin 4 μg/ml): not as effective as the peptides; bactericidal activity, in words ([6]; pH 5.5): unable to kill the bacteria; bactericidal activity, in words ([6]; pH 7.2): active against the bacteria
